A word on the IC50: it is the midpoint of a concentration-inhibition curve.

Where two headings read alike, the source gives them in different places.

Series [1] in a line: NMR-based stability assay in cell culture medium. Format: physicochemical. The following applies: ~8 mM in DMSO-d6 diluted 1:3 with DMEM + 10% FCS; NMR at 37°C for 16 hours; compared with Example Compound 1; Figures 1-3.
The target of another series is Trypsin (Homo sapiens, UniProt P07477). Description: Biochemical inhibition assay, fluorogenic substrate FSR-AMC.
The next series concerns the target Factor Xa (Homo sapiens, UniProt P00742). The series is described as above.
The target of the next series is KLK6 (Homo sapiens, UniProt Q92876). The series is described as above.
Another series has as its target Thrombin (Homo sapiens, UniProt P00734). The description is as above.
Where [2] appears, read: read-out: Trypsin IC50, Trypsin 0.88 ng/mL, 30 min incubation with inhibitor, FSR-AMC 20 µM, Tris pH 7.5.
Where [3] appears, read: read-out: Factor Xa IC50, Factor Xa 4 nM, 30 min incubation with inhibitor, FSR-AMC 20 µM, Tris pH 7.5.
Where [4] appears, read: read-out: KLK6 IC50, KLK6 5 nM (produced in insect cells), 30 min incubation with inhibitor, FSR-AMC 20 µM, Tris pH 7.5.
Where [5] appears, read: read-out: Thrombin IC50, Thrombin 9.8·10^-5 NIH unit/mL, 30 min incubation with inhibitor, FSR-AMC 20 µM, Tris pH 7.5.

Factor Xa, sequence (P00742 235-488 limits assumed): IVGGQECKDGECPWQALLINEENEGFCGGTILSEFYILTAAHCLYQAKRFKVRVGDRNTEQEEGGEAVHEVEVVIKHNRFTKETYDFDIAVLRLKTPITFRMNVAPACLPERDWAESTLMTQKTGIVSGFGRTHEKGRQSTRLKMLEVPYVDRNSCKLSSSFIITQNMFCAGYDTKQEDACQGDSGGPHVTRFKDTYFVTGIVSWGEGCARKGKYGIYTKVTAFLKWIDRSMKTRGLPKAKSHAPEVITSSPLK
Factor Xa, sequence (P00742 41-179 partner limits assumed): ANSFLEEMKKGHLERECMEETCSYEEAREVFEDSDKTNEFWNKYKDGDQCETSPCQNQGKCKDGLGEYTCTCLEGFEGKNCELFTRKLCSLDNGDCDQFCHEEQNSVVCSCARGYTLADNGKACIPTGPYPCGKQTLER
Protocol for Factor Xa: (§1) In a 384 well plate, 5 µL of eleven concentrations of inhibitor in 8% DMSO (serial dilution 2:1) and a blank were incubated with an equal amount of enzyme (KLK6, Thrombin, Trypsin or Factor Xa) diluted in 50 mM Tris pH 7.5, 150 mM NaCl, 1 mM EDTA, 0.05% Tween20 assay buffer for 30 minutes. […] Inhibition of the enzyme as a function of the inhibitor concentration was used to generate dose response curves, which allowed estimating IC50 values, according to the following equation in GraphPad Prism: y = ymin + (ymax−ymin)/(1+10^(((LogIC50−x)*HillSlope))) [formula]
(§2) Assay final concentrations: • KLK6: 5 nM • Trypsin: 0.88 ng/mL • Thrombin: 9.8·10^-5 NIH unit/mL • Factor Xa: 4 nM • FSR-AMC: 20 µM
Protocol for KLK6: as §1, §2
Protocol for Thrombin: as §1, §2
Protocol for Trypsin: as §1, §2

Consider `Cc1nn(-c2ccccc2)c(C)c1NC(=O)COC(=O)Cc1c(C)[nH]c2ccccc12` [Example Compound 38, 2-((3,5-dimethyl-1-phenyl-1H-pyrazol-4-yl)amino)-2-oxoethyl 2-(2-methyl-1H-indol-3-yl)acetate], for which the “stability in cell culture medium (ester hydrolysis)” value in series [1] is recorded as “totally enhanced”.
`Cc1nn(-c2ccccc2)c(C)c1NC(=O)COC(=O)Cc1ccsc1Cl` [compound 66]: the concentration for half-maximal inhibition (IC50) on Trypsin (setting [2]) is more than 200 µM; on Factor Xa (setting [3]) it was more than 200 µM; at KLK6 (setting [4]), 7.4 µM; on Thrombin (setting [5]) it was more than 200 µM.
Regarding `Cc1ccc(-n2nc(C)c(NC(=O)COC(=O)Cn3c(C)cc4ccccc43)c2C)cc1` [compound 9, 2-((3,5-dimethyl-1-(p-tolyl)-1H-pyrazol-4-yl)amino)-2-oxoethyl 2-(2-methyl-1H-indol-1-yl)acetate], the IC50 is 67.1 µM at Trypsin, more than 200 µM at Factor Xa, 0.267 µM against KLK6 and 197 µM at Thrombin.
Take `Cc1nn(-c2ccccc2)c(C)c1NC(=O)COC(=O)Cc1cccc(C#N)c1` [compound 56]: the IC50 on Trypsin (setting [2]) was more than 200 µM; on Factor Xa (setting [3]) it was more than 200 µM; on KLK6 (setting [4]), 16.1 µM; on Thrombin (setting [5]), more than 200 µM.
Consider `Cc1[nH]c2ccccc2c1CC(=O)OCC(=O)Nc1cnn(-c2ccccc2)c1` [compound 39], for which the half-maximal inhibitory concentration (IC50) was more than 50 µM at Trypsin (setting [2]), more than 50 µM at Factor Xa (setting [3]), 6.98 µM at KLK6 (setting [4]) and more than 50 µM on Thrombin (setting [5]).
Take `Cc1cccc(-n2nc(C)c(NC(=O)COC(=O)Cn3c(C)cc4ccccc43)c2C)c1` [compound 3, 2-((3,5-dimethyl-1-(m-tolyl)-1H-pyrazol-4-yl)amino)-2-oxoethyl 2-(2-methyl-1H-indol-1-yl)acetate]: the IC50 is 65.7 µM against Trypsin, more than 200 µM on Factor Xa, 0.371 µM against KLK6 and more than 200 µM on Thrombin.
`Cc1nn(-c2ccccc2)c(C)c1NC(=O)COC(=O)C(C)c1c(C)[nH]c2ccccc12` (centres unmarked) [Example Compound 81, 2-((3,5-dimethyl-1-phenyl-1H-pyrazol-4-yl)amino)-2-oxoethyl 2-(2-methyl-1H-indol-3-yl)propanoate]: the “stability in cell culture medium (ester hydrolysis)” value in series [1] is given as “further stabilizing properties”.
For `Cc1nn(-c2ccccc2)c(C)c1NC(=O)COC(=O)Cc1ccccc1I` [compound 51], the half-maximal inhibitory concentration (IC50) is more than 200 µM on Trypsin (setting [2]), more than 200 µM on Factor Xa (setting [3]), 0.261 µM on KLK6 (setting [4]) and more than 200 µM on Thrombin (setting [5]).
For `Cc1[nH]c2ccccc2c1CC(=O)OCC(=O)NC(C)(C)C` [compound 67], the IC50 on Trypsin (setting [2]) was more than 200 µM; at Factor Xa (setting [3]), more than 200 µM; at KLK6 (setting [4]), 166 µM; on Thrombin (setting [5]) it was more than 200 µM.
For `Cc1nn(-c2ccccc2)c(C)c1NC(=O)COC(=O)Cn1c(C)cc2cccc(Cl)c21` [compound 33], the IC50 at Trypsin (setting [2]) is more than 50 µM; on Factor Xa (setting [3]), more than 50 µM; on KLK6 (setting [4]), 6.49 µM; at Thrombin (setting [5]) it was more than 50 µM.
As for `Cc1nn(-c2ccccc2)c(C)c1NC(=O)COC(=O)Cc1ccccn1` [compound 58], the half-inhibitory concentration (IC50) at Trypsin (setting [2]) was more than 200 µM; on Factor Xa (setting [3]) it was more than 200 µM; at KLK6 (setting [4]), 8.86 µM; on Thrombin (setting [5]), more than 200 µM.
On to `Cc1[nH]c2ccccc2c1CC(=O)OCC(=O)Nc1ccccc1Cl` [compound 73], for which the IC50 is 114 µM at Trypsin (setting [2]), 34.7 µM on Factor Xa (setting [3]), 1.46 µM on KLK6 (setting [4]) and more than 200 µM on Thrombin (setting [5]).
For `Cc1nn(-c2ccccc2)c(C)c1NC(=O)COC(=O)Cc1cccs1` [compound 59], in that order: more than 200 µM, more than 200 µM, 6.28 µM and more than 200 µM.
For the molecule `Cc1ccc(-n2nc(C)c(NC(=O)COC(=O)Cn3c(C(F)(F)F)cc4ccccc43)c2C)cc1` [compound 20], the concentration for half-maximal inhibition (IC50) on Trypsin (setting [2]) was more than 200 µM; at Factor Xa (setting [3]) it was more than 200 µM; on KLK6 (setting [4]), 0.24 µM; at Thrombin (setting [5]), more than 200 µM.
As for `Cc1cc(C)n(CC(=O)OCC(=O)Nc2c(C)nn(-c3ccccc3)c2C)n1` [compound 17], the IC50 is more than 200 µM at Trypsin (setting [2]), more than 200 µM at Factor Xa (setting [3]), 109 µM on KLK6 (setting [4]) and more than 200 µM at Thrombin (setting [5]).
In the case of `Cc1nn(-c2ccc([N+](=O)[O-])cc2)c(C)c1NC(=O)COC(=O)Cn1c(C)cc2ccccc21` [compound 10, 2-((3,5-dimethyl-1-(4-nitrophenyl)-1H-pyrazol-4-yl)amino)-2-oxoethyl 2-(2-methyl-1H-indol-1-yl)acetate], the IC50 is more than 200 µM on Trypsin, more than 200 µM at Factor Xa, 0.994 µM against KLK6 and more than 200 µM against Thrombin.
Take `Cc1nn(-c2ccc(C(F)(F)F)cc2)c(C)c1NC(=O)COC(=O)Cn1c(C)cc2ccccc21` [compound 4, 2-((3,5-dimethyl-1-(4-(trifluoromethyl)phenyl)-1H-pyrazol-4-yl)amino)-2-oxoethyl 2-(2-methyl-1H-indol-1-yl)acetate]: the IC50 is more than 200 µM at Trypsin, more than 200 µM at Factor Xa, 2.89 µM on KLK6 and more than 200 µM against Thrombin.
For the molecule `Cc1nn(-c2ccccc2)c(C)c1NC(=O)COC(=O)Cc1ccccc1OCc1ccccc1` [compound 69], the IC50 was more than 200 µM on Trypsin (setting [2]), more than 200 µM at Factor Xa (setting [3]), 57.4 µM at KLK6 (setting [4]) and more than 200 µM on Thrombin (setting [5]).
On to `Cc1nn(-c2ccc([N+](=O)[O-])cc2)c(C)c1NC(=O)COC(=O)Cn1c(C(F)(F)F)cc2ccccc21` [compound 21], for which the half-maximal inhibitory concentration (IC50) was more than 200 µM on Trypsin (setting [2]), more than 200 µM at Factor Xa (setting [3]), 112 µM at KLK6 (setting [4]) and more than 200 µM at Thrombin (setting [5]).
For the molecule `Cc1nn(-c2ccccc2)c(C)c1NC(=O)COC(=O)C(C)n1c(C)cc2ccccc21` (centres unmarked) [compound 34], the IC50 on Trypsin (setting [2]) was more than 50 µM; at Factor Xa (setting [3]), more than 50 µM; at KLK6 (setting [4]), 11.3 µM; at Thrombin (setting [5]), more than 50 µM.

For the origin of these results see EP3305781A1, “CHEMICAL SUBSTANCES WHICH INHIBIT THE ENZYMATIC ACTIVITY OF HUMAN KALLIKREIN-RELATED PEPTIDASE 6 (KLK6)” (Deutsches Krebsforschungszentrum, priority 2016, dated 2018).
